Test results from PubChem BioAssay AID1845219 (Molecular Pharmacology Branch, DTP, NCI, 2023).
Values joined by “and” are separate entries in the source; they are usually repeats but may differ in a detail not shown here. Identical values can stand only once.

System: SYO-1 tumor spheroids, viability % test/control
Assay: Anticancer human tumor SYO-1 cell line growth inhibition;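 note: spheroids exposed to agents for 7 days before viability read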;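 for viability, T/C: 100% = DMSO vehicle control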
Settings: spheroids with HUVEC and MSC; for viability, T/C: stronger effect = lower value
Excerpt: Multicellular complex tumor spheroid response to DNA repair inhibitors in combination with DNA-damaging drugs
This study explores the anticancer activities of DNA-damaging drugs and inhibitors of DNA damage repair, both as single agents and in combinations. Complex tumor spheroids comprised of malignant cells, endothelial cells and mesenchymal stem cells served as an in vitro model for human solid tumors. This model system incorporates physiologically relevant features and patient-derived or established malignant cell lines with clinically relevant genetic alterations from many tumor types. Twenty-six patient-derived or established malignant cell lines were evaluated representing sarcoma, melanoma, small cell lung cancer (SCLC), non-small cell lung cancer (NSCLC), as well as bladder, ovarian and pancreatic cancers. The concentration ranges selected for each drug and investigational agent were based upon clinically achievable concentrations if the clinical Cmax of the agent was known.
Compounds. The drugs and compounds olaparib (NSC753686), talazoparib (NSC767125), berzosertib (NSC777718), elimusertib (NSC800525), nedisertib (NSC802822), VX-984 (NSC792969), AZD-1390 (NSC803789), temozolomide (NSC362856), topotecan (NSC609699), trabectedin (NSC813783), staurosporine (NSC755774), and gemcitabine (NSC613327) were obtained from the National Cancer Institute (NCI) Developmental Therapeutics Program Chemical Repository. The FDA-approved anticancer drug set is available from the Developmental Therapeutics Program at https://dtp.cancer.gov/organization/dscb/obtaining/available_plates.htm. […] The stock solutions were prepared in dimethyl sulfoxide (DMSO, Sigma-Aldrich, St. Louis, MO, cat. D2650) at 400-fold the tested concentration and stored at -70 degrees C. Prior to their use, the stock solutions were diluted in fresh medium and the final DMSO concentration in the assay was 0.25% (v/v). All drugs and investigational agents were tested over a range starting from a high concentration at or near the clinical Cmax and decreasing in half-log increments. If the clinical Cmax for an agent had not been determined, the highest concentration tested was 10 microM.
Cell Lines. The patient-derived cancer cell (PDC) lines: 156681-154-R-J1-PDC, 283228-195-R-J1-PDC, 287954-098-R-J1-PDC, 292921-168-R-J2-PDC, 349418-098-R-PDC, 425362-245-T-J1-PDC, 556581-035-R-J1-PDC, and BL0293-F563-PDC were received from the NCI Patient-Derived Models Repository (PDMR, https://pdmr.cancer.gov). The established cell lines HS-SY-2 (RRID:CVCL_8719), MPNST, and SYO-1 (RRID:CVCL_7146) were obtained from the Sloan Kettering Institute. The alveolar soft parts sarcoma cell line ASPS-1 (RRID:CVCL_S738) was established at the NCI and grown from internal seed stocks. The following established cell lines were purchased from the American Type Culture Collection (ATCC, Manassas, VA): G-401 (ATCC, cat. CRL-1441, RRID:CVCL_0270), SW982 (ATCC, cat. HTB-93, RRID:CVCL_1734), VA-ES-BJ (ATCC, cat. CRL-2138, RRID:CVCL_1785), NCI-H719 (ATCC, cat. CRL-5837, RRID:CVCL_1582), NCI-H196 (ATCC, cat. CRL-5823, RRID:CVCL_1509), NCI-H841 (ATCC, cat. CRL-5845, RRID:CVCL_1595), NCI-H1618 (ATCC, cat. CRL-5879, RRID:CVCL_1480), NCI-H1876 (ATCC, cat. CRL-5902, RRID:CVCL_1503), DMS 114 (ATCC, cat. CRL-2066; RRID:CVCL_1174), NCI-H211 (ATCC, cat. CRL-5824; RRID:CVCL_1529), and SW 1271 (ATCC, cat. CRL-2177, RRID:CVCL_1716). The small cell lung cancer cell line COR-L88 was purchased from Sigma-Aldrich (cat. 92031917-1VL, RRID:CVCL_1141). The non-small cell lung cancer cell lines NCI-H226 (RRID:CVCL_1544) and NCI-H322M (RRID:CVCL_1557) were established at the NCI and grown from internal seed stocks. Pooled donor human umbilical vein endothelial cells (HUVEC, Lonza, cat. CC-2519) and human mesenchymal stem cells (hMSC, Lonza, cat. PT-2501) were purchased from Lonza (Walkersville, MD).
Cell Culture. All cells were maintained in an incubator at 37 degrees C and 5% CO2 with 95% humidity. […]

[1] = compound alone, run of 12/02/2019
[2] = compound alone, run of 12/12/2019

Compound	viability, T/C (compound 0.0316 µM)	viability, T/C (compound 0.1 µM)	viability, T/C (compound 0.316 µM)	viability, T/C (compound 1 µM)	viability, T/C (compound 3.16 µM)	viability, T/C (compound 10 µM)	IC50 (curve of compound)	viability, T/C (compound 0.03 µM)	viability, T/C (compound 0.0949 µM)	viability, T/C (compound 0.3 µM)	viability, T/C (compound 0.949 µM)	viability, T/C (compound 3 µM)	further results
CC(C)n1c(=O)n(C)c2cnc3cc(F)c(-c4ccc(OCCCN5CCCCC5)nc4)cc3c21	105% and 101% and 96.7%	103% and 101% and 98.9%	84.4% and 102% and 93.8%	103% and 102% and 104%	107% and 103% and 104%	64.1% and 48% and 48.3%	> 10000 nM and 9600 nM and 9620 nM	–	–	–	–	–	–
CC1COCCN1c1cc(-c2ccnn2C)c2ccnc(-c3ccn[nH]3)c2n1 (stereo not given)	–	3.02% and 9.27% and 5.04%	1.96% and 2.61% and 2.62%	1.13% and 1.61% and 1.44%	0.59% and 0.92% and 0.71%	0.6% and 0.99% and 0.58%	< 31.6 nM and 32.1 nM	–	–	–	–	–	–
CC[C@@]1(O)C(=O)OCc2c1cc1n(c2=O)Cc2cc3c(CN(C)C)c(O)ccc3nc2-1	–	–	–	–	–	–	–	1.67% [middle of 10 runs]	1.54% [middle of 10 runs]	1.88% [middle of 10 runs]	–	–	viability, T/C (compound 0.003 µM): 92.2% [middle of 10 runs]; IC50 [1]: 5.58 nM [middle of 5 runs]; IC50 [2]: 6.49 nM [middle of 5 runs]
CNCc1ccc(-c2cc(-c3nc(-c4ccc(S(=O)(=O)C(C)C)cc4)cnc3N)on2)cc1	–	–	–	–	–	–	138 nM and 159 nM and 161 nM	101% and 99.2% and 99%	72.5% and 86.8% and 89.3%	3.37% and 4.34% and 3.43%	0.29% and 0.76% and 0.36%	0.18% and 0.19% (2×)	viability, T/C (compound 0.00949 µM): 101% and 100% and 109%
COc1cc(C)[nH]c(=O)c1CN1CCc2c(Cl)cc(C(OC)C3COC3)c(Cl)c2C1=O (stereo not given)	114% and 106% (2×)	110% and 115% and 112%	95.1% and 101% and 106%	78.1% and 82.5% and 90.5%	67.7% and 80% and 82.7%	59.9% and 73.2% and 75.6%	> 10000 nM	–	–	–	–	–	–
COc1cc2c(cc1O)CCNC21CSC2c3c(OC(C)=O)c(C)c4c(c3C(COC1=O)N1C(O)C3Cc5cc(C)c(OC)c(O)c5C(C21)N3C)OCO4 (stereo not given)	–	–	–	–	–	–	–	–	–	–	–	–	viability, T/C (compound 30 pM): 97.6% [middle of 10 runs]; viability, T/C (compound 0.0003 µM): 14.7% [middle of 10 runs]; viability, T/C (compound 0.000949 µM): 1.05% [middle of 10 runs]; viability, T/C (compound 0.003 µM): 0.12% [middle of 7 runs]; IC50 [2]: 0.179 nM [middle of 9 runs]
COc1ccc([C@@H](O)c2cc(-c3ncnc4cc(N5CCOCC5)ccc34)c(F)cc2Cl)nn1	109% and 108% and 104%	108% and 107% and 101%	104% and 106% and 103%	105% and 101% and 102%	66.1% (2×) and 84.2%	7.28% and 14.2% and 20.4%	4310 nM and 4520 nM and 5860 nM	–	–	–	–	–	–
Cc1cc(C)c(CNC(=O)c2cc(-c3ccc(CN4CCOCC4)cc3)cc3c2cnn3C2CCCC2)c(=O)[nH]1	106% and 109% and 103%	106% and 109% and 100%	108% and 97.8% and 99.2%	107% and 104% and 103%	112% and 104% (2×)	106% and 67% and 88.7%	> 10000 nM	–	–	–	–	–	–
Cc1sc2c(c1C)C(c1ccc(Cl)cc1)=NC(CC(=O)Nc1ccc(O)cc1)c1nnc(C)n1-2 (stereo not given)	–	–	–	–	–	–	66.5 nM and 93.4 nM and 105 nM	90.7% and 90.8% and 85.5%	31.8% and 49.4% and 54.7%	1.04% and 3.66% and 1.07%	0.73% and 0.9% and 0.49%	0.63% and 0.72% and 0.4%	viability, T/C (compound 0.00949 µM): 93.8% and 91.9% and 91.3%
Cn1ncnc1[C@H]1c2n[nH]c(=O)c3cc(F)cc(c23)N[C@@H]1c1ccc(F)cc1	–	–	–	–	–	–	19 nM and 17.4 nM and 17.7 nM	29.5% and 23.3% and 18.3%	4.75% and 5.28% and 5.09%	2.61% and 2.85% and 2.82%	1.54% and 2.38% and 1.48%	1.36% and 1.92% and 1.26%	viability, T/C (compound 0.00949 µM): 81.1% and 79.7% and 87.3%
Cn1nnc2c(C(N)=O)ncn2c1=O	–	–	–	102% [middle of 9 runs]	98.2% [middle of 10 runs]	100% [middle of 10 runs]	–	–	–	–	–	–	viability, T/C (compound 31.6 µM): 106% [middle of 10 runs]; IC50 [1]: > 100000 nM and 88300 nM
O=C(c1cc(Cc2n[nH]c(=O)c3ccccc23)ccc1F)N1CCN(C(=O)C2CC2)CC1	–	–	–	–	–	–	1760 nM and 2160 nM and 1750 nM	–	102% (2×) and 103%	100% and 103% and 99.2%	90.7% and 93.7% and 94.1%	14.7% and 32.7% and 11%	viability, T/C (compound 9.49 µM): 3.59% and 3.04% and 2.51%; viability, T/C (compound 30 µM): 2.83% and 2.91% and 2.43%
[2H]c1nc(C)nc([2H])c1-c1cc(NC[C@@H](C)c2cccc3c(C(=O)NC)ccnc23)ncn1	107% and 105% and 96.2%	105% and 104% and 102%	105% (2×) and 102%	105% and 99% and 98.5%	104% (2×) and 96.3%	100% and 95.5% and 101%	> 10000 nM	–	–	–	–	–	–
